The target of one assay is T1, 5HT2C receptors (Homo sapiens, UniProt P28335).
T1 sequence (P28335 33-458): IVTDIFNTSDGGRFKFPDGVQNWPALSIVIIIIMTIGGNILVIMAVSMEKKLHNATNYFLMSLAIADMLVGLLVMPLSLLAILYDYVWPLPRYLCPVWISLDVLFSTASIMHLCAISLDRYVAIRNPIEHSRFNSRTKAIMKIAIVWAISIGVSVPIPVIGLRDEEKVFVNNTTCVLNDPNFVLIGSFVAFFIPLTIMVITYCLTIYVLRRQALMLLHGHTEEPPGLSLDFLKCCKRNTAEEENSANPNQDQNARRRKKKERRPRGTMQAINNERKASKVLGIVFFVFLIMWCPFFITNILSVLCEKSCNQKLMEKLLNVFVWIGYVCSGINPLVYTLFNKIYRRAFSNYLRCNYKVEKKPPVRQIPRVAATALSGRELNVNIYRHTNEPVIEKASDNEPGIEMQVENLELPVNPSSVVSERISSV
The experiment in a line: Human 5-HT2C functional high throughput screening assay in CHO-K1 cells (calcium flux). The arrangement: expressed in transfected cells; host or cells: CHO-K1 cells. It counts as cell-based. The following applies: for Emax: CHO-K1, 5-HT2C, maximum functional response as percentage relative to the effect of serotonin; for EC50: CHO-K1 cells, calcium flux. In outline:
(§1)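 Serum-starved CHO-K1 cells carrying the receptor; Ca4 dye, 60 min RT. Test compound added after a 10 s baseline, fluorescence followed for 3 min. EC50 from 4-parameter fit; Emax given as % of serotonin effect.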
In general terms: A change in cytosolic calcium serves as a functional read-out for many receptors and channels.

The target in the next assay is T2, 5HT2B receptors (Homo sapiens, UniProt P41595).
T2 construct: expressed in transfected cells; host or cells: CHO-K1 cells
The experiment in a line: Human 5-HT2B functional high throughput screening assay in CHO-K1 cells (calcium flux). The conditions noted are these: for EC50: CHO-K1 cells, calcium flux. Format: cell-based. In outline: as §1

[1] abbreviates: 5-HT2B, maximum functional response as percentage relative to the effect of serotonin.
[2] abbreviates: 5-HT2C agonist activity, read-out: EC50.
Where [3] appears, read: 5-HT2B agonist activity, read-out: EC50.
Setting [4] is: CHO-K1, 5-HT2B, maximum functional response as percentage relative to the effect of serotonin, read-out: Emax.

As a reminder, the Emax is the size of the effect at its maximum, as opposed to the concentration needed. One may read the EC50 as the concentration that produces a half-maximal response.

Where two headings read alike, the source gives them in different places. Bounds are passed on as bounds.

T2 sequence (P41595 whole entry): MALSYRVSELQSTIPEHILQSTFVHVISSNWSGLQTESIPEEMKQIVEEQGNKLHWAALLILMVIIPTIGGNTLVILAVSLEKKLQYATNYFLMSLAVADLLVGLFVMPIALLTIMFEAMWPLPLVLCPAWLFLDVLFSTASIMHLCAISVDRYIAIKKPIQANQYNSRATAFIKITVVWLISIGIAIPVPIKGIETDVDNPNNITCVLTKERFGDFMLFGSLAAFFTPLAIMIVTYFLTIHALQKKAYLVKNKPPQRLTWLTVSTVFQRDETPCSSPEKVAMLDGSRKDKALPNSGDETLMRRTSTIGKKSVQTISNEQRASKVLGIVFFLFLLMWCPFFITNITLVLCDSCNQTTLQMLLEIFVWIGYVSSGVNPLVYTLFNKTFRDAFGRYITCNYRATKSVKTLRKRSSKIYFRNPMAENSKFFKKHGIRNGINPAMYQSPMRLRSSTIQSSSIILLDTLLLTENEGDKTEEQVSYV

In the case of `CC(C)CNc1ccc2c(c1)C(=O)NC[C@@H]1CN(C)C[C@@H]21` (relative stereo) [Example 297, Trans-8-(isobutylamino)-2-methyl-2,3,3a,4,5,10b-hexahydropyrrolo[3,4-d][2]benzazepin-6(1H)-one], the maximum response (Emax) is 80% on 5HT2C receptors and “inactive” on 5HT2B receptors (setting [1]). Further, the EC50 on 5HT2C receptors (EC50, 5-HT2C agonist activity) is 100 nM; at 5HT2B receptors (EC50, 5-HT2B agonist activity), over 10000 nM.
With `O=C1NC[C@@H]2CNC[C@H]2c2ccc(OCCc3cccc(F)c3)cc21` (relative stereo) [Example 124, Trans-8-(3-fluorophenethoxy)-1,2,3,3a,4,5-hexahydrobenzo[e]pyrrolo[3,4-c]azepin-6(10bH)-one], the values for the EC50 on 5HT2C receptors (setting [2]) and at 5HT2B receptors (setting [3]) were 20 nM and over 10000 nM, respectively. The Emax at 5HT2C receptors (read-out: Emax) was over 120%; on 5HT2B receptors (setting [1]) it was “inactive”.
In the case of `COc1ccc2c(c1)C(=O)NC[C@@H]1CNC[C@H]21` (relative stereo) [Example 135, Cis-8-methoxy-1,2,3,3a,4,5-hexahydrobenzo[e]pyrrolo[3,4-c]azepin-6(10bH)-one], the 50% effective concentration (EC50) on 5HT2C receptors (setting [2]) was 800 nM; at 5HT2B receptors (setting [3]), over 10000 nM. The Emax on 5HT2C receptors is over 120%; at 5HT2B receptors (setting [1]), “inactive”.
With `CN1C[C@@H]2CNC(=O)c3cc(-c4ccccn4)ccc3[C@H]2C1` [Example 388, (3aS,10bS)-2-Methyl-8-(pyridin-2-yl)-2,3,3a,4,5,10b-hexahydropyrrolo[3,4-d][2]benzazepin-6(1H)-one], the results for the concentration giving a half-maximal response (EC50) on 5HT2C receptors (setting [2]) and on 5HT2B receptors (setting [3]) were 300 nM and over 10000 nM, respectively. Besides, the maximum response (Emax) was 90% at 5HT2C receptors and “inactive” at 5HT2B receptors (setting [1]).
For the compound `O=C1NC[C@@H]2CN(Cc3ccccc3)C[C@H]2c2ncccc21` (relative stereo) [Example 151, Trans-9-benzyl-7,7a,8,9,10,10a-hexahydropyrido[2,3-e]pyrrolo[3,4-c]azepin-5(6H)-one], the maximal response (Emax) on 5HT2C receptors was over 120%; at 5HT2B receptors (setting [1]), “inactive”. Besides, the EC50 on 5HT2C receptors (EC50, 5-HT2C agonist activity) was 70 nM; on 5HT2B receptors (EC50, 5-HT2B agonist activity), over 10000 nM.
Regarding `O=S(=O)(c1ccc(F)cc1)N1Cc2cccnc2[C@@H]2CNC[C@H]2C1` (relative stereo) [Example 357, Trans-6-[(4-fluorophenyl)sulfonyl]-5,6,7,7a,8,9,10,10a-octahydropyrido[3,2-c]pyrrolo[3,4-e]azepine], the maximum response (Emax) is 85% on 5HT2C receptors and “inactive” on 5HT2B receptors (setting [1]). Besides, the EC50 is 100 nM at 5HT2C receptors (EC50, 5-HT2C agonist activity) and over 10000 nM at 5HT2B receptors (EC50, 5-HT2B agonist activity).
Consider `COc1ccc2c(c1)[C@H]1CNC[C@@H]1CCC2` (relative stereo) [Example 263, Trans-9-methoxy-1,2,3,3a,4,5,6,10b-octahydrobenzo[3,4]cyclohepta[1,2-c]pyrrole], for which the Emax on 5HT2C receptors is over 120%; on 5HT2B receptors (CHO-K1), 100%. The concentration for a half-maximal effect (EC50) stood at 100 nM on 5HT2C receptors (EC50, 5-HT2C agonist activity) and 20 nM at 5HT2B receptors (EC50, 5-HT2B agonist activity).
As to `CC(O)c1cccc(-c2cccc3c2OCC[C@H]2CNC[C@H]32)c1` (relative stereo) [Example 367, 1-{3-[Trans-2,3,3a,4,5,10b-hexahydro-1H-[1]benzoxepino[4,5-c]pyrrol-7-yl]phenyl}ethanol], the EC50 on 5HT2C receptors (setting [2]) was 20 nM; at 5HT2B receptors (setting [3]), over 10000 nM. The Emax is 90% at 5HT2C receptors (read-out: Emax) and “inactive” on 5HT2B receptors (setting [1]).
With `O=C1NC[C@@H]2CNC[C@H]2c2cc3ccccc3cc21` (relative stereo) [Example 257, Trans-1,2,3,3a,4,5-hexahydronaphtho[2,3-e]pyrrolo[3,4-e]azepin-6(12bH)-one], the EC50 came to 20 nM on 5HT2C receptors (setting [2]) and 60 nM at 5HT2B receptors (setting [3]). Besides, the maximal effect (Emax) on 5HT2C receptors (read-out: Emax) amounted to 120%; on 5HT2B receptors (setting [4]) it was 40%.
For `Cc1cc(C)c(S(=O)(=O)N2Cc3cccnc3[C@@H]3CNC[C@H]3C2)c(C)c1` (relative stereo) [Example 363, Trans-6-(mesitylsulfonyl)-5,6,7,7a,8,9,10,10a-octahydropyrido[3,2-c]pyrrolo[3,4-e]azepine], the EC50 at 5HT2C receptors (setting [2]) was determined as 200 nM; on 5HT2B receptors (setting [3]) it was 1000 nM. For the same compound, the results for the maximal response (Emax) on 5HT2C receptors (read-out: Emax) and at 5HT2B receptors (setting [4]) were 65% and 15%, respectively.
With `Fc1ccc2c(c1)OCC[C@H]1CNC[C@H]21` (relative stereo) [Example 109, Trans-8-fluoro-2,3,3a,4,5,10b-hexahydro-1H-[1]benzoxepino[4,5-c]pyrrole], the Emax was over 120% at 5HT2C receptors and 55% on 5HT2B receptors (CHO-K1). Besides, the EC50 at 5HT2C receptors (EC50, 5-HT2C agonist activity) was 40 nM; on 5HT2B receptors (EC50, 5-HT2B agonist activity) it was 300 nM.
Consider `c1ccc2c(c1)OCC[C@H]1CNC[C@H]21` [Example 270, (3aR,10bS)-2,3,3a,4,5,10b-Hexahydro-1H-[1]benzoxepino[4,5-c]pyrrole], for which the maximal effect (Emax) on 5HT2C receptors is over 120%; on 5HT2B receptors (CHO-K1), 50%. Moreover, the concentration giving a half-maximal response (EC50) at 5HT2C receptors (EC50, 5-HT2C agonist activity) is 10 nM; on 5HT2B receptors (EC50, 5-HT2B agonist activity), 200 nM.
Turning to `COc1cccc(S(=O)(=O)N2Cc3cccnc3[C@@H]3CNC[C@H]3C2)c1` (relative stereo) [Example 336, Trans-6-[(3-methoxyphenyl)sulfonyl]-5,6,7,7a,8,9,10,10a-octahydropyrido[3,2-e]pyrrolo[3,4-e]azepine], the EC50 at 5HT2C receptors (setting [2]) is 90 nM; at 5HT2B receptors (setting [3]) it was 600 nM. The maximal effect (Emax) at 5HT2C receptors (read-out: Emax) was 90%; on 5HT2B receptors (setting [4]) it was 70%.
As for `COc1ccc(F)cc1-c1ccc2c(c1)C(=O)NC[C@@H]1CN(C)C[C@@H]21` (relative stereo) [Example 300, Trans-8-(5-fluoro-2-methoxyphenyl)-2-methyl-2,3,3a,4,5,10b-hexahydropyrrolo[3,4-d][2]benzazepin-6(1H)-one], the values for the EC50 at 5HT2C receptors (setting [2]) and at 5HT2B receptors (setting [3]) were 50 nM and over 10000 nM, respectively. In addition, the Emax is 100% at 5HT2C receptors (read-out: Emax) and “inactive” on 5HT2B receptors (setting [1]).
Regarding `Clc1ccc2c(c1)[C@H]1CNC[C@@H]1CCO2` [Example 233, (3aR,10bS)-9-Chloro-2,3,3a,4,5,10b-hexahydro-1H-[1]benzoxepino[4,5-c]pyrrole], the maximum response (Emax) at 5HT2C receptors is over 120%; at 5HT2B receptors (CHO-K1), 55%.
Consider `CNC(=O)c1ccc2c(c1)C(=O)NC[C@@H]1CN(C)C[C@@H]21` (relative stereo) [Example 125, Trans-N,2-dimethyl-6-oxo-1,2,3,3a,4,5,6,10b-octahydrobenzo[e]pyrrolo[3,4-c]azepine-8-carboxamide], for which the figures for the 50% effective concentration (EC50) on 5HT2C receptors (setting [2]) and at 5HT2B receptors (setting [3]) were 2000 nM and over 10000 nM, respectively. Moreover, the maximal response (Emax) at 5HT2C receptors (read-out: Emax) is 90%; at 5HT2B receptors (setting [1]) it was “inactive”.
Consider `CN1C[C@H]2CNC(=O)c3cc(-c4ccc(F)cc4)ccc3[C@@H]2C1` (relative stereo) [Example 75, Trans-8-(4-fluorophenyl)-2-methyl-1,2,3,3a,4,5-hexahydrobenzo[e]pyrrolo[3,4-c]azepin-6(10bH)-one], for which the Emax was over 120% at 5HT2C receptors (read-out: Emax) and “inactive” on 5HT2B receptors (setting [1]). Moreover, the EC50 at 5HT2B receptors (setting [3]) is over 10000 nM.
Regarding `COC(=O)c1ccc2c(c1)C(=O)NC[C@@H]1CN(Cc3ccccc3)C[C@@H]21` (relative stereo) [Example 129, Trans-methyl 2-benzyl-6-oxo-1,2,3,3a,4,5,6,10b-octahydrobenzo[e]pyrrolo[3,4-c]azepine-8-carboxylate], the results for the EC50 at 5HT2C receptors (setting [2]) and on 5HT2B receptors (setting [3]) were 200 nM and over 10000 nM, respectively. In addition, the Emax on 5HT2C receptors (read-out: Emax) is over 120%; at 5HT2B receptors (setting [1]), “inactive”.
For the compound `CN1C[C@H]2CNC(=O)c3c(OC(F)(F)F)cccc3[C@@H]2C1` (relative stereo) [Example 110, Trans-2-methyl-7-(trifluoromethoxy)-1,2,3,3a,4,5-hexahydrobenzo[c]pyrrolo[3,4-e]azepin-6(10bH)-one], the maximal effect (Emax) at 5HT2C receptors was over 120%; at 5HT2B receptors (CHO-K1), 15%. The EC50 at 5HT2B receptors (EC50, 5-HT2B agonist activity) came out at 900 nM.
Take `Cc1cccc(S(=O)(=O)N2Cc3cccnc3[C@@H]3CNC[C@H]3C2)c1` (relative stereo) [Example 348, Trans-6-[(3-methylphenyl)sulfonyl]-5,6,7,7a,8,9,10,10a-octahydropyrido[3,2-c]pyrrolo[3,4-e]azepine]: the Emax on 5HT2C receptors turned out to be 85%; on 5HT2B receptors (CHO-K1), 50%. The EC50 worked out at 70 nM on 5HT2C receptors (EC50, 5-HT2C agonist activity) and 800 nM at 5HT2B receptors (EC50, 5-HT2B agonist activity).
For the compound `CN1C[C@H]2CNC(=O)c3cc(Oc4ccc(F)cc4)ccc3[C@@H]2C1` (relative stereo) [Example 243, Trans-8-(4-fluorophenoxy)-2-methyl-1,2,3,3a,4,5-hexahydrobenzo[c]pyrrolo[3,4-e]azepin-6(10bH)-one], the EC50 is 60 nM at 5HT2C receptors (setting [2]) and over 10000 nM at 5HT2B receptors (setting [3]). For the same compound, the results for the maximal response (Emax) on 5HT2C receptors (read-out: Emax) and at 5HT2B receptors (setting [1]) were over 120% and “inactive”, respectively.
Take `Cc1ccc2c(c1)[C@H]1CNC[C@@H]1CCO2` (relative stereo) [Example 290, Trans-9-methyl-2,3,3a,4,5,10b-hexahydro-1H-[1]benzoxepino[4,5-c]pyrrole]: the values for the maximal response (Emax) on 5HT2C receptors and at 5HT2B receptors (CHO-K1) were 80% and 35%, respectively. Besides, the EC50 is 100 nM at 5HT2C receptors (EC50, 5-HT2C agonist activity) and 20 nM on 5HT2B receptors (EC50, 5-HT2B agonist activity).

The record behind these values is patent publication US8846951B2 (AbbVie Inc., priority 2009, dated 2014).
